Data on 8 molecules can be found in patent CN108290841A, “具有荧光性的类视黄醇x受体结合性分子及其用途” (Okayama University NUC, priority 2015, dated 2017).

A short description of data set [1]: Blood concentration after oral administration to mice (Example 17). The class given is in vivo. The settings on record: mouse (male ICR, 6 weeks).
The subject of another data set is NFκB. The settings on record: LPS 1 ng/mL, 24 h; relative to LPS without test compound as 100%.
Data set [2] deals with retinoid X receptor (RXR) [类视黄醇X受体]. In words: Luciferase reporter gene assay for RXR transcriptional activation (Example 9). The settings on record: COS-1 cells; for RXR agonist activity: relative to transcriptional activity with 1 μM bexarotene set to 1. The class given is cell-based.
Data set [3] has as its target T1, RXRα protein (ligand binding domain (LBD)) [RXRα蛋白质(配体结合域(LBD))] (Homo sapiens, UniProt P19793).
T1 construct: 关于RXRα蛋白质(配体结合域(LBD)),将Active Motif社制的物质以100nM使用; purchased Active Motif
T1 sequence (P19793 227-458 limits assumed): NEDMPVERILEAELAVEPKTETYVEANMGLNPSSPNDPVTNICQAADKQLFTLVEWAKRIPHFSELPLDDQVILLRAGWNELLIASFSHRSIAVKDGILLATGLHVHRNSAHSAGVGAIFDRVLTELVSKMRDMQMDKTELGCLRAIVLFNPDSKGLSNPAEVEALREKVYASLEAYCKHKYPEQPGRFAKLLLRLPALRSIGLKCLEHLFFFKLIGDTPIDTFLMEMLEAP
In words: RXR binding of RXR ligands evaluated with compound 10 as fluorescent probe (Example 13). The settings on record: RXRα-LBD 100 nM, compound 10 100 nM; from EC50 by Cheng-Prusoff equation.

For data set [4], the target named is T1, RXRα protein (ligand binding domain (LBD)) [RXRα蛋白质(配体结合域(LBD))]. In words: Detection of RXR binding of RXR ligands with compound 44 (Example 15). The settings on record: test compound 1 μM, compound 44 30 nM, RXRα-LBD 100 nM.
Data set [5] deals with T2, full-length RXRα protein [全长RXRα蛋白质] (Homo sapiens, UniProt P19793).
T2 construct: 全长RXRα蛋白质使用3μM
T2 sequence (P19793 1-462): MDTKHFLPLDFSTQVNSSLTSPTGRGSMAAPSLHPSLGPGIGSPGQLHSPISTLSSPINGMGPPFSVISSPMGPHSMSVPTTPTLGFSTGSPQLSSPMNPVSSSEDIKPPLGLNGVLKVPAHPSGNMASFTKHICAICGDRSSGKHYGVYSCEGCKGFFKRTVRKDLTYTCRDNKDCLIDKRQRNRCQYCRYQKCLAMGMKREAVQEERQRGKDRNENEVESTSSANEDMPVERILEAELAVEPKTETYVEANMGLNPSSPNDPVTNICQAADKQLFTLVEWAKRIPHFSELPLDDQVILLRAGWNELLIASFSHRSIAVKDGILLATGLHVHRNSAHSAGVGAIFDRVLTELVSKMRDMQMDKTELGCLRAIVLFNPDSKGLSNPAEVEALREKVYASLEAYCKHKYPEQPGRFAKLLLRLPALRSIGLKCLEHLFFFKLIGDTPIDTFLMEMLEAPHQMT
In words: Combined assay: RXR activation by fluorescence polarization of fluorescein-PGC1a coactivator peptide (Example 16). The settings on record: test compound 10 μM, full-length RXRα 3 μM, compound 10 3 μM, fluorescein-PGC1a 30 nM. The class given is biochemical. (In general: Fluorescence polarisation rises when a labelled molecule tumbles more slowly, as on binding a larger partner.)

In data set [1] (in vivo, 30 mg/kg oral, 0.5 h after administration), `Cc1cc2c(cc1-c1cc3cc(C(=O)O)c(=O)oc3cc1O)C(C)(C)CCC2(C)C` [化合物10] returned a concentration at 0.5 h of roughly 3000 nM. Moreover, the disappearance from blood entry in data set [1] (30 mg/kg oral, 0.5, 1, 3 and 6 h) is reported as “时间依赖性地从血液中消失”. The “SEAP activity / inhibitory activity on NFκB transcriptional activity” value with NFκB is reported as “抑制SEAP活性,显示对于NFκB的抑制活性”.
Regarding `CCCOc1cc2c(cc1-c1cc3cc(C(=O)O)c(=O)oc3cc1O)C(C)(C)CCC2(C)C` [化合物23b], the RXR agonist activity result in data set [2] was “确认到RXR激动剂活性”.
`COc1cc2c(cc1-c1cc3cc(C(=O)O)c(=O)oc3cc1O)C(C)(C)CCC2(C)C` [化合物23a]: the RXR agonist activity entry in data set [2] is on record as “确认到RXR激动剂活性”.
As for `Cc1cc(OC(C)C)c(C(C)C)cc1-c1cc2cc(C(=O)O)c(=O)oc2cc1O` [化合物30], the RXR agonist activity entry in data set [2] was “确认到RXR激动剂活性”.
With `Cc1cc2c(cc1-n1c(C(F)(F)F)nc3cc(C(=O)O)ccc31)C(C)(C)CCC2(C)C` [CBTF-PMN], the inhibitory constant (Ki) (commonly the dissociation constant of the complex between target and ligand, obtained from inhibition or displacement) in data set [3] was determined as 73 nM.
For the molecule `CCN(c1ccc(C(=O)O)cn1)c1cc(OCC(C)C)c(C(C)C)cc1/C=C/c1ccccc1` [NEt-SB], in data set [4], the “change of fluorescence intensity of compound 44 by test compound” value is “荧光强度减少”.
Turning to `CCCCCCOc1cc2c(cc1N(C)c1ncc(C(=O)O)cn1)C(C)(C)CCC2(C)C` [PA452], the Ki in data set [3] worked out at 108 nM. For the same molecule, in data set [5], the “fluorescence polarization of fluorescein-PGC1a” value is recorded as “减少”.
Turning to `CCCCCOc1cc2c(cc1-c1cc3cc(C(=O)O)c(=O)oc3cc1O)C(C)(C)CCC2(C)C` [化合物23c], the RXR antagonist activity entry in data set [2] (in the presence of the RXR agonist NEt-TMN (printed for compound 44; others tested similarly)) was “确认到RXR拮抗剂活性”.
